Target: BRD4 (Homo sapiens, UniProt O60885)
Assay: biochemical
Format: binding
Details: one of the FRET assays described; read-out: FRET BRD4 IC50

SMILES	IC50
Cc1nnn(C)c1-c1ccc2c3ncc(C(C)(C)O)cc3n(C(CCC(F)(F)F)c3ccccn3)c2c1 (single isomer, unassigned) [Example 6, 2-[7-(dimethyl-1H-1,2,3-triazol-5-yl)-5-[4,4,4-trifluoro-1-(pyridin-2-yl)butyl]-5H-pyrido[3,2-b]indol-3-yl]propan-2-ol]	< 5 nM
[2H]C([2H])([2H])c1nnn(C)c1-c1cc2c(cc1F)c1ncc(C(C)(C)O)cc1n2C(c1ccc(F)cn1)C1CCOCC1 (single isomer, unassigned) [Example 45, 2-{8-fluoro-5-[(5-fluoropyridin-2-yl)(oxan-4-yl)methyl}-7-[4-(^2H3)methyl-1-methyl-1H-1,2,3-triazol-5-yl]-5H-pyrido[3,2-b]indol-3-yl]propan-2-ol]	< 5 nM
[2H]C([2H])([2H])c1onc(C)c1-c1cc2c(cc1F)c1ncc(C(C)(C)O)cc1n2[C@H](c1ccccc1)C1CCOCC1 [Example 33, 2-{8-Fluoro-7-[5-(^2H3)methyl-3-methyl-1,2-oxazol-4-yl]-5-[(S)-(oxan-4-yl)(phenyl)methyl]-5H-pyrido[3,2-b]indol-3-yl}propan-2-ol]	< 1 nM
[2H]C([2H])([2H])c1nnn(C)c1-c1cc2c(cc1F)c1ncc(C(C)(C)O)cc1n2C(c1cc(C)on1)C1CCOCC1 (stereo not shown) [Example 35, 2-{8-Fluoro-5-[(5-methyl-1,2-oxazol-3-yl)(oxan-4-yl)methyl]-7-[4-(^2H3)methyl-1-methyl-1H-1,2,3-triazol-5-yl]-5H-pyrido[3,2-b]indol-3-yl}propan-2-ol]	< 1500 nM
Cc1noc(C)c1-c1cc2c(cc1F)c1ncc(C(C)(C)O)cc1n2[C@H](c1ccccc1)C1CCOCC1 [Example 18, 2-[7-(dimethyl-1,2-oxazol-4-yl)-8-fluoro-5-[(S)-oxan-4-yl(phenyl)methyl]-5H-pyrido[3,2-b]indol-3-yl]propan-2-ol]	< 5 nM
[2H]C([2H])([2H])c1nnn(C)c1-c1cc2c(cc1F)c1ncc(C(C)(C)O)cc1n2C(c1ncccc1C)C1CCOCC1 (single isomer, unassigned) [Example 42, 2-{8-fluoro-7-[4-(^2H3)methyl-1-methyl-1H-1,2,3-triazol-5-yl]-5-[(3-methylpyridin-2-yl)(oxan-4-yl)methyl}-5H-pyrido[3,2-b]indol-3-yl]propan-2-ol]	< 5 nM
[2H]C([2H])([2H])c1nnn(C)c1-c1cc2c(cc1Cl)c1ncc(C(C)(C)O)cc1n2C(c1cc(C)on1)C1CCOCC1 (single isomer, unassigned) [Example 78, 2-{8-chloro-5-[(5-methyl-1,2-oxazol-3-yl)(oxan-4-yl)methyl]-7-[4-(^2H3)methyl-1-methyl-1H-1,2,3-triazol-5-yl]-5H-pyrido[3,2-b]indol-3-yl}propan-2-ol]	< 1500 nM
[2H]C([2H])([2H])c1nnn(C)c1-c1ccc2c3ncc(C(C)(C)O)cc3n(C(c3ncccc3F)C3CCOCC3)c2c1 (single isomer, unassigned) [Example 72, 2-{5-[(3-Fluoropyridin-2-yl)(oxan-4-yl)methyl]-7-[4-(^2H3)methyl-1-methyl-1H-1,2,3-triazol-5-yl]-5H-pyrido[3,2-b]indol-3-yl}propan-2-ol]	< 1 nM
Cc1nnn(C)c1-c1ccc2c3ncc(C(C)(C)O)cc3n([C@H](c3ccccc3)C3CCOCC3)c2c1F [Example 20, 2-[7-(Dimethyl-1H-1,2,3-triazol-5-yl)-6-fluoro-5-[(S)-oxan-4-yl(phenyl)methyl]-5H-pyrido[3,2-b]indol-3-yl]propan-2-ol]	< 5 nM
[2H]C([2H])([2H])c1nnn(C)c1-c1cc2c(cc1F)c1ncc(C(C)(C)O)cc1n2C(c1ccccc1)C1(C)COC1 (single isomer, unassigned) [Example 64, 2-{8-fluoro-7-[4-(^2H3)methyl-1-methyl-1H-1,2,3-triazol-5-yl]-5-[(3-methyloxetan-3-yl)(phenyl)methyl]-5H-pyrido[3,2-b]indol-3-yl}propan-2-ol]	< 5 nM
[2H]C([2H])([2H])c1nnn(C)c1-c1cc2c(cc1F)c1ncc(C(C)(C)O)cc1n2C(CCC)c1ncccc1F (single isomer, unassigned) [Example 39, 2-{8-fluoro-5-[1-(3-fluoropyridin-2-yl)butyl]-7-[4-(^2H3)methyl-1-methyl-1H-1,2,3-triazol-5-yl}-5H-pyrido[3,2-b]indol-3-yl]propan-2-ol]	< 5 nM
[2H]C([2H])([2H])c1nnn(C)c1-c1cc2c(cc1F)c1ncc(C(C)(C)O)cc1n2C(CC1COC1)c1ccccc1 (racemic) [Example 66, 2-{8-fluoro-7-[4-(^2H3)methyl-1-methyl-1H-1,2,3-triazol-5-yl]-5-[2-(oxetan-3-yl)-1-phenylethyl]-5H-pyrido[3,2-b]indol-3-yl}propan-2-ol]	< 1 nM
[2H]C([2H])([2H])c1nnn(C)c1-c1cc2c(cc1F)c1ncc(C(C)(C)O)cc1n2C(c1cc(C)ccn1)C1CCOCC1 (single isomer, unassigned) [Example 52, 2-{8-fluoro-7-[4-(^2H3)methyl-1-methyl-1H-1,2,3-triazol-5-yl]-5-[(4-methylpyridin-2-yl)(oxan-4-yl)methyl]-5H-pyrido[3,2-b]indol-3-yl}propan-2-ol]	< 5 nM
Cc1noc(C)c1-c1ccc2c3ncc(C(C)(C)O)cc3n([C@H](c3ccccc3F)C3CCOCC3)c2c1 [Example 15, 2-[7-(Dimethyl-1,2-oxazol-4-yl)-5-[(S)-(2-fluorophenyl)(oxan-4-yl)methyl]-5H-pyrido[3,2-b]indol-3-yl]propan-2-ol]	< 5 nM
Cc1noc(C)c1-c1ccc2c3ncc(C(C)(C)O)cc3n([C@H](c3ccccc3)C3CCOCC3)c2c1 [Example 14, 2-[7-(Dimethyl-1,2-oxazol-4-yl)-5-[(S)-oxan-4-yl(phenyl)methyl]-5H-pyrido[3,2-b]indol-3-yl]propan-2-ol]	< 5 nM
[2H]C([2H])([2H])c1nnn(C)c1-c1cc2c(cc1Cl)c1ncc(C(C)(C)O)cc1n2C(CCC)c1ncccc1F (single isomer, unassigned) [Example 83, 2-{8-chloro-5-[1-(3-fluoropyridin-2-yl)butyl]-7-[4-(^2H3)methyl-1-methyl-1H-1,2,3-triazol-5-yl]-5H-pyrido[3,2-b]indol-3-yl}propan-2-ol]	< 5 nM
[2H]C([2H])([2H])c1nnn(C)c1-c1cc2c(cc1F)c1ncc(C(C)(C)O)cc1n2C(c1cc(OC)ccn1)C1CCOCC1 (single isomer, unassigned) [Example 50, 2-{8-fluoro-5-[(4-methoxypyridin-2-yl)(oxan-4-yl)methyl]-7-[4-(^2H3)methyl-1-methyl-1H-1,2,3-triazol-5-yl]-5H-pyrido[3,2-b]indol-3-yl}propan-2-ol]	< 5 nM
[2H]C([2H])([2H])c1nnn(C)c1-c1ccc2c3ncc(C(C)(C)O)cc3n(C(c3ncccc3F)C3CCOCC3)c2c1F (single isomer, unassigned) [Example 85, 2-{6-Fluoro-5-[(3-fluoropyridin-2-yl)(oxan-4-yl)methyl]-7-[4-(^2H3)methyl-1-methyl-1H-1,2,3-triazol-5-yl]-5H-pyrido[3,2-b]indol-3-yl}propan-2-ol]	< 5 nM

Same assay, conditions: read-out: FRET BRD4 IC50

IC50	SMILES
< 5 nM	[2H]C([2H])([2H])c1nnn(C)c1-c1ccc2c3ncc(C(C)(C)O)cc3n([C@H](c3ccccc3)C3CCOCC3)c2c1 [Example 16, 2-{7-[4-(^2H3)Methyl-1-methyl-1H-1,2,3-triazol-5-yl]-5-[(S)-oxan-4-yl(phenyl)methyl]-5H-pyrido[3,2-b]indol-3-yl}propan-2-ol]

— patent publication US10683290B2, “Tricyclic compounds as anticancer agents” (BRISTOL-MYERS SQUIBB COMPANY, priority 2015, dated 2020)
